Like-named read-outs stand apart in the source and are kept apart here.
What was measured:
MAO-B [1] = target: T1, MAO-B (Homo sapiens, UniProt P27338); assay: MAO-B inhibition of prior 3-phenylcoumarins (literature data); assay type: biochemical; conditions: LiPE = pIC50 - QPlogPo/w, literature IC50
T1 construct: purchased Sigma-Aldrich
T1 sequence (P27338 1-520): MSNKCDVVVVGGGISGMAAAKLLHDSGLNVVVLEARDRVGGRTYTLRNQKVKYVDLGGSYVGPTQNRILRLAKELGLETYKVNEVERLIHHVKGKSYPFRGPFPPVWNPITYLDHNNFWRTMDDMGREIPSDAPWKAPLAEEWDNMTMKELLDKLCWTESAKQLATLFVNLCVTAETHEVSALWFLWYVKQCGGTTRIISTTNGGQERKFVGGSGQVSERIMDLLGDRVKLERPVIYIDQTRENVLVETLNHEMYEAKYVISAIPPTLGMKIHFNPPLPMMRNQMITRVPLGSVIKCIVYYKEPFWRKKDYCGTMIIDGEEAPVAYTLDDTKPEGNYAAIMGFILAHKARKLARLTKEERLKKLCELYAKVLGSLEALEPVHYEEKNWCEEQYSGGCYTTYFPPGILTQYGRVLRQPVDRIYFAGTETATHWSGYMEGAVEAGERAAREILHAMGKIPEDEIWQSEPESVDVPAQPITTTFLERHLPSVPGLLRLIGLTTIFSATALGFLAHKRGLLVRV

MAO-B [2] = target: T1, MAO-B; conditions: cited from earlier work; for pIC50: MAO-B; for IC50: read-out: MAO-B inhibition IC50
[3] = from literature IC50 ref Matos et al., 2011a
[4] = prior 3-phenylcoumarins ref Matos et al., 2011a
[5] = from literature IC50 ref Matos et al., 2009, 2011a
[6] = prior 3-phenylcoumarins ref Matos et al., 2009, 2011a
[7] = from literature IC50 ref Matos et al., 2010
[8] = prior 3-phenylcoumarins ref Matos et al., 2010
[9] = from literature IC50 ref Matos et al., 2011b
[10] = prior 3-phenylcoumarins ref Matos et al., 2011b
[11] = from literature IC50 ref Serra et al., 2012
[12] = prior 3-phenylcoumarins ref Serra et al., 2012

SMILES | LiPE (MAO-B [1]) | pIC50 (MAO-B [2]; [3]) | IC50 (MAO-B [2]; [4]) [nM] | also measured
COc1cccc(-c2cc3cc(C)ccc3oc2=O)c1 [CHEMBL570731] | 5.64 | 9.10 | 0.8 | 
COc1ccc(-c2cc3cc(C)ccc3oc2=O)cc1 [CHEMBL572233] | 4.41 |  |  | pIC50 (MAO-B [2]; [5]): 7.88; IC50 (MAO-B [2]; [6]): 13.1 nM
Cc1ccc2oc(=O)c(-c3ccccc3Br)cc2c1 [CHEMBL1221929] | 1.46 |  |  | pIC50 (MAO-B [2]; [7]): 5.37; IC50 (MAO-B [2]; [8]): 4300 nM
COc1cc(Br)cc2cc(-c3ccccc3)c(=O)oc12 [CHEMBL1777814] | 3.35 |  |  | pIC50 (MAO-B [2]; [9]): 7.08; IC50 (MAO-B [2]; [10]): 83.5 nM
O=c1oc2c(O)cc(Br)cc2cc1-c1ccccc1 [CHEMBL1777847] | 1.45 |  |  | pIC50 (MAO-B [2]; [9]): 4.51; IC50 (MAO-B [2]; [10]): 30900 nM
O=c1oc2c(O)cc(Br)cc2cc1-c1ccc(O)cc1 [CHEMBL1777849] | 2.46 |  |  | pIC50 (MAO-B [2]; [9]): 4.77; IC50 (MAO-B [2]; [10]): 16900 nM
Cc1ccc2oc(=O)c(-c3ccccc3)cc2c1 [CHEMBL1783714] | 3.08 |  |  | pIC50 (MAO-B [2]; from literature IC50 ref Matos et al., 2009, 2011a, Viña et al., 2012b): 6.55; IC50 (MAO-B [2]; prior 3-phenylcoumarins ref Matos et al., 2009, 2011a, Viña et al., 2012b): 284 nM
COc1ccc2oc(=O)c(-c3cccc(C)c3)cc2c1 [CHEMBL1835223] | 4.30 | 7.77 | 17.1 | 
COc1ccc2oc(=O)c(-c3ccc(C)cc3)cc2c1 [CHEMBL1835224] | 5.35 | 8.82 | 1.52 | 
Cc1ccc(-c2cc3cc(O)ccc3oc2=O)cc1 [CHEMBL1835225] | 4.42 | 7.17 | 67.1 | 
CC(=O)COc1ccc2oc(=O)c(-c3ccc(C)cc3)cc2c1 [CHEMBL1835226] | 2.32 | 5.26 | 5520 | 
Cc1ccc(-c2cc3cc(OC4CCCC4)ccc3oc2=O)cc1 [CHEMBL1835227] | 0.14 | 4.84 | 14500 | 
Cc1cccc(-c2cc3cc(C)ccc3oc2=O)c1 [CHEMBL1835229] | 4.09 | 7.82 | 15 | 
COc1ccc(-c2cc3cc(C)ccc3oc2=O)cc1Br [CHEMBL1835231] | 5.05 | 9.13 | 0.74 | 
Cc1ccc2oc(=O)c(-c3cccc(O)c3)cc2c1 [CHEMBL1835326] | 3.44 | 6.19 | 650 | 
Cc1ccc2oc(=O)c(-c3ccccc3O)cc2c1 [CHEMBL1835327] | 4.08 | 6.92 | 120 | 
CC(=O)COc1cccc(-c2cc3cc(C)ccc3oc2=O)c1 [CHEMBL1835328] | 3.80 | 6.74 | 180 | 
COc1ccc(-c2c(O)c3ccccc3oc2=O)cc1 [CHEMBL1917495] | 1.49 |  |  | pIC50 (MAO-B [2]; [11]): 4.16; IC50 (MAO-B [2]; [12]): 69600 nM
COc1ccc(-c2c(O)c3cc(C)ccc3oc2=O)cc1 [CHEMBL1934673] | 1.53 |  |  | pIC50 (MAO-B [2]; [11]): 4.49; IC50 (MAO-B [2]; [12]): 32000 nM
COc1ccc(-c2c(O)c3cc(C)ccc3oc2=O)cc1Cl [CHEMBL1934676] | 0.88 |  |  | pIC50 (MAO-B [2]; [11]): 4.37; IC50 (MAO-B [2]; [12]): 42700 nM
COc1ccc(-c2c(O)c3cc(Cl)ccc3oc2=O)cc1Cl [CHEMBL1934677] | 1.88 |  |  | pIC50 (MAO-B [2]; [11]): 5.55; IC50 (MAO-B [2]; [12]): 2790 nM

More lines, main results first:

LiPE (MAO-B [1]) | SMILES | pIC50 (MAO-B [2]; [3]) | IC50 (MAO-B [2]; [4]) [nM] | also measured
0.95 | Cc1cc(Br)c2oc(=O)c(-c3ccccc3)cc2c1 [CHEMBL1221930] |  |  | pIC50 (MAO-B [2]; [7]): 4.96; IC50 (MAO-B [2]; [8]): 11000 nM
1.42 | COc1ccc(-c2cc3cc(C)cc(Br)c3oc2=O)cc1 [CHEMBL1221980] |  |  | pIC50 (MAO-B [2]; [7]): 5.49; IC50 (MAO-B [2]; [8]): 3230 nM
1.02 | COc1cc(OC)cc(-c2cc3cc(C)cc(Br)c3oc2=O)c1 [CHEMBL1221981] |  |  | pIC50 (MAO-B [2]; [7]): 5.15; IC50 (MAO-B [2]; [8]): 7120 nM
1.09 | COc1cc(-c2cc3cc(C)cc(Br)c3oc2=O)cc(OC)c1OC [CHEMBL1221982] |  |  | pIC50 (MAO-B [2]; [7]): 5.31; IC50 (MAO-B [2]; [8]): 4890 nM
5.09 | COc1ccc(-c2cc3cc(Br)cc(OC)c3oc2=O)cc1 [CHEMBL1777845] |  |  | pIC50 (MAO-B [2]; [9]): 8.87; IC50 (MAO-B [2]; [10]): 1.35 nM
4.52 | COc1cc(OC)cc(-c2cc3cc(C)ccc3oc2=O)c1 [CHEMBL1783715] |  |  | pIC50 (MAO-B [2]; [5]): 8.05; IC50 (MAO-B [2]; [6]): 8.98 nM
3.18 | COc1cc(-c2cc3cc(C)ccc3oc2=O)cc(OC)c1OC [CHEMBL1783716] |  |  | pIC50 (MAO-B [2]; [5]): 6.79; IC50 (MAO-B [2]; [6]): 161 nM
5.04 | COc1ccc(-c2cc3cc(C)ccc3oc2=O)cc1OC [CHEMBL1835230] | 8.56 | 2.73 | 
4.41 | COc1cc(-c2cc3cc(C)ccc3oc2=O)ccc1Br [CHEMBL1835232] | 8.49 | 3.25 | 
0.20 | COc1cc(OC)c(Br)c(-c2cc3cc(C)ccc3oc2=O)c1 [CHEMBL1835233] | 4.27 | 54000 | 

From article PMC5840146, “Structure-Activity Relationship Analysis of 3-Phenylcoumarin-Based Monoamine Oxidase B Inhibitors” (Frontiers in Chemistry, 2018)
